Data as given in paper PMC11189026 (Chemical communications (Cambridge, England), 2024).

Experiments:
aminopeptidase = test: Aminopeptidase challenge of cyclised and uncyclised lanthipeptides; details: compared to the uncyclised compounds; Fig. S7
αvβ3 integrin [1] = target: αvβ3 integrin (Homo sapiens, UniProt P05106+P06756); format: binding; details: ratio of Ki values, FP competition
αvβ3 integrin [2] = target: αvβ3 integrin (UniProt P06756 31-1048; P05106 27-788); test: fluorescence polarisation; competition of the lanthipeptides against fluorescently labelled c(RGDyK) for αvβ3 integrin; Ki from competition curves; details: both partners purified
αvβ3 integrin (UniProt P06756 31-1048; P05106 27-788), sequence (P06756 31-1048, chain 1 of 2): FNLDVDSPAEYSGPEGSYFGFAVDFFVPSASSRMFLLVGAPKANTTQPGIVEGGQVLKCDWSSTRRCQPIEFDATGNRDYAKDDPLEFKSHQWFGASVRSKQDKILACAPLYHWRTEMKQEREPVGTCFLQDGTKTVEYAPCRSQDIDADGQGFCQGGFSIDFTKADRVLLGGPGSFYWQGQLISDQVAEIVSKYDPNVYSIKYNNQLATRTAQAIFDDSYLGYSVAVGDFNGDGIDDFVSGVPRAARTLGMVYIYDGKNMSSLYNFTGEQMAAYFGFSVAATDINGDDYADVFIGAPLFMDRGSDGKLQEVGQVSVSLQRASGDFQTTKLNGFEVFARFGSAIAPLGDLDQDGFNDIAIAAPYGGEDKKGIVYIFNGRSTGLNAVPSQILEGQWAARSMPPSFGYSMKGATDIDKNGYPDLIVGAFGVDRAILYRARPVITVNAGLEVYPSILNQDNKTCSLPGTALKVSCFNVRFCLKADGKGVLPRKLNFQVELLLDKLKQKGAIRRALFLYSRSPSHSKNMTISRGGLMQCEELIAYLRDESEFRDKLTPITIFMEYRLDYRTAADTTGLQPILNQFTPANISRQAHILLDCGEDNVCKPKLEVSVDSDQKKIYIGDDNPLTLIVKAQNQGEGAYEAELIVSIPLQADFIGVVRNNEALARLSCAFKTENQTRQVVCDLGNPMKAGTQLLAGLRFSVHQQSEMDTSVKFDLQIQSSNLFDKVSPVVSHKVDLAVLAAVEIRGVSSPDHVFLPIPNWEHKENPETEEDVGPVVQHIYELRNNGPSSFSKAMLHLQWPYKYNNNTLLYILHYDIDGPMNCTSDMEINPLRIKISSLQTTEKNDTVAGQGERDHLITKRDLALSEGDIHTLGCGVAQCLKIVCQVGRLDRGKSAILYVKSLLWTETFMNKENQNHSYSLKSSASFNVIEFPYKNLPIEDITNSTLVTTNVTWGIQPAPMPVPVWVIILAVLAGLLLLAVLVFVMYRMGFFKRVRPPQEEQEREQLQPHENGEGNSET
αvβ3 integrin (UniProt P06756 31-1048; P05106 27-788), sequence (P05106 27-788, chain 2 of 2): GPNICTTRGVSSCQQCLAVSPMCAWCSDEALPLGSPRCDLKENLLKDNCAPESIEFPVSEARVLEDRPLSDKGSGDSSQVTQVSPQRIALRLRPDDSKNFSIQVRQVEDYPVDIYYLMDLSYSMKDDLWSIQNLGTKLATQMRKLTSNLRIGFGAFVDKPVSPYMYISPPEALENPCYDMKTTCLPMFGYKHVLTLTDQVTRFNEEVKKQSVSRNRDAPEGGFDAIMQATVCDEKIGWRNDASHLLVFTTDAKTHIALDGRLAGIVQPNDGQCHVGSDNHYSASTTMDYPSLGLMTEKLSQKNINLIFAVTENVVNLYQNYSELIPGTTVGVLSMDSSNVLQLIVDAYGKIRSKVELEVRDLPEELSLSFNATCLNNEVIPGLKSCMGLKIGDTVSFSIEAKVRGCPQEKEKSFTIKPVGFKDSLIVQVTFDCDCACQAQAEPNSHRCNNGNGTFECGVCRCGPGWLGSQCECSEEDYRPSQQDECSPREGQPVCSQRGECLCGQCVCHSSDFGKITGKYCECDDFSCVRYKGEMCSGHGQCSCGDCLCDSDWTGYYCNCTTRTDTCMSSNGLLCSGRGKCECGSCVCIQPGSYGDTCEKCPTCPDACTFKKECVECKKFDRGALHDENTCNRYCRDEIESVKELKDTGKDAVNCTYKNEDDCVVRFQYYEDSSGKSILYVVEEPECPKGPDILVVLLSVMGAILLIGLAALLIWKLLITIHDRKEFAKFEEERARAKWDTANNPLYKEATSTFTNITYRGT

αvβ3 integrin (Homo sapiens, UniProt P05106+P06756), sequence (P06756 31-992 limits assumed): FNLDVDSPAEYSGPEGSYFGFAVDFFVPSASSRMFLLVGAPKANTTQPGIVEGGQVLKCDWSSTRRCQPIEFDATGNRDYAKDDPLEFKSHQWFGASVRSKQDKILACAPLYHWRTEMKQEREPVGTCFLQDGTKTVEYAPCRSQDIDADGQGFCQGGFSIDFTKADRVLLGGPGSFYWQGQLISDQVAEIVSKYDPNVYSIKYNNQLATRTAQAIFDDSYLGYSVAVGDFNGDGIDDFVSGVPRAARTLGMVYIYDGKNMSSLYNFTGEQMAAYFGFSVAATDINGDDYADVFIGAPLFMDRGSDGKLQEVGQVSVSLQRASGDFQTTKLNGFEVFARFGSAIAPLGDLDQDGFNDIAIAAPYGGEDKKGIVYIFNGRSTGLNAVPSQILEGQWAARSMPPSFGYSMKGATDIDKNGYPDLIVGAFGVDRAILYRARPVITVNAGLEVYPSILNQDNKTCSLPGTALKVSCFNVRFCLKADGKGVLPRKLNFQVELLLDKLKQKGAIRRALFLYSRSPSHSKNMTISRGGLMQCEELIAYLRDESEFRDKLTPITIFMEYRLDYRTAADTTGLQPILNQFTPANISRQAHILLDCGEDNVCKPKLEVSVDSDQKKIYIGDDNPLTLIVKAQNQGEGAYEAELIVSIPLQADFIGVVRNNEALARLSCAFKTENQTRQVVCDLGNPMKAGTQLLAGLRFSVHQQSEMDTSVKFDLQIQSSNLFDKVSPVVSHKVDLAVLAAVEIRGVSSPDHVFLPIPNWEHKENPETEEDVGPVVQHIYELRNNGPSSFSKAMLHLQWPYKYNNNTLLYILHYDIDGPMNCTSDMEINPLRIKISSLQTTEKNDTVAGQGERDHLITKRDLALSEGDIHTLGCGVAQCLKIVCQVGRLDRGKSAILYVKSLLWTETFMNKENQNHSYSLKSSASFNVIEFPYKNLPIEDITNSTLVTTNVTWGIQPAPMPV
αvβ3 integrin (Homo sapiens, UniProt P05106+P06756), sequence (P05106 27-718 limits assumed): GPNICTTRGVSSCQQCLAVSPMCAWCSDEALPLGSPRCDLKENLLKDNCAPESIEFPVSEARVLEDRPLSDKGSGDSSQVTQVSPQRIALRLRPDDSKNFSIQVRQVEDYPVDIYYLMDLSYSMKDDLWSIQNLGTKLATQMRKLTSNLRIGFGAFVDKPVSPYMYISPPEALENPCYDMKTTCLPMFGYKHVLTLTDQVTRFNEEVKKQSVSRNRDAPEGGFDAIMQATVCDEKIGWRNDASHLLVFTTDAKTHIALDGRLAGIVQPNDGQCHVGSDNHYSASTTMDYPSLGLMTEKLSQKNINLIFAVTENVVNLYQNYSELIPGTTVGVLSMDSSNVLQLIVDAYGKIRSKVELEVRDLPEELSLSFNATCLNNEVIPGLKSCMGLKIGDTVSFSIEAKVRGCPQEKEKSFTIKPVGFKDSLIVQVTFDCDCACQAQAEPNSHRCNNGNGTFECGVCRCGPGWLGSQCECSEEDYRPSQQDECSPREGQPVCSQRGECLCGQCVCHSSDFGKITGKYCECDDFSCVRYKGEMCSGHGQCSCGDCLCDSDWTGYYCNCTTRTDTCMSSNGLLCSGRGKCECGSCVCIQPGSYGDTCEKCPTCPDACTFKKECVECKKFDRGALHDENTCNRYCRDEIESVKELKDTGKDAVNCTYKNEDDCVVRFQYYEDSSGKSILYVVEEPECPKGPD

CSCC[C@@H]1NC(=O)[C@H]2CSC[C@H](NC(=O)[C@H](C)NC(=O)[C@H](C)NC(=O)[C@H](CC(N)=O)NC(=O)[C@@H]3CSC[C@@H](NC(=O)[C@@H]4CCCN4C(=O)[C@@H]4CCCN4C1=O)C(=O)N[C@@H](Cc1ccc(O)cc1)C(=O)N[C@@H](Cc1c[nH]c4ccccc14)C(=O)N[C@@H](CCCNC(=N)N)C(=O)NCC(=O)N[C@@H](CC(=O)O)C(=O)N3)C(=O)N[C@@H](Cc1c[nH]cn1)C(=O)N[C@@H](CC(N)=O)C(=O)N[C@@H](Cc1c[nH]cn1)C(=O)N[C@@H](C)C(=O)N1CCC[C@H]1C(=O)N2 [c16RGD]
resistance to aminopeptidase (aminopeptidase): resistant to aminopeptidase

CSCC[C@@H]1NC(=O)[C@H]2CSC[C@H](NC(=O)[C@H](C)NC(=O)[C@H](C)NC(=O)[C@H](CC(N)=O)NC(=O)[C@@H]3CSC[C@@H](NC(=O)[C@@H]4CCCN4C(=O)[C@@H]4CCCN4C1=O)C(=O)N[C@@H](Cc1ccc(O)cc1)C(=O)N[C@@H](CCCNC(=N)N)C(=O)NCC(=O)N[C@@H](CC(=O)O)C(=O)N[C@@H](CCC(=O)O)C(=O)N3)C(=O)N[C@@H](Cc1c[nH]cn1)C(=O)N[C@@H](CC(N)=O)C(=O)N[C@@H](Cc1c[nH]cn1)C(=O)N[C@@H](C)C(=O)N1CCC[C@H]1C(=O)N2 [c15RGD]
resistance to aminopeptidase (aminopeptidase): resistant to aminopeptidase | fold higher affinity for αvβ3 integrin, N-to-C cyclised vs noncyclised (αvβ3 integrin [1]): 4 fold

B1: N-to-C cyclised prochlorosin 15RGD (OaAEP1-cyclised lanthipeptide) (peptide)
chain: cyclo(AACHNHAPSMPPSYRGDECN)
modifications: thioether (positions not given here); also: lanthionine linkages installed by ProcM, places not given here, thioether: lanthionine
Ki (αvβ3 integrin [2]): 7.7 ± 1.3 µM

B2: N-to-C cyclised prochlorosin 16RGD (OaAEP1-cyclised lanthipeptide) (peptide)
chain: cyclo(AACHNHAPSMPPSYWRGDCN)
modifications: thioether (positions not given here); also: lanthionine linkages installed by ProcM, places not given here, thioether: lanthionine
Ki (αvβ3 integrin [2]): 0.28 ± 0.03 µM
